Our source for the EC50, IC50 and outcome values is PubChem BioAssay AID179 (DTP/NCI, 2004).

Calls of active or inactive are those of the source.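 How the source made its calls: active means compounds giving half or more protection of infected cells from virus-caused growth loss, again on retest; inactive means the rest.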 Bounds are passed on as bounds.

The experiment concerns CEM cells HIV-1 protection, formazan growth assay. Briefly: NCI AIDS Antiviral Assay. The following applies: for IC50: measured here: growth of uninfected CEM cells. In a few lines: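 Protection of CEM cells against HIV-1 was scored from cell growth (soluble formazan) across five concentrations, with parallel uninfected cells. Lack of protection may reflect toxicity.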

With `O=C1ON(c2ccccc2)C(c2ccccc2)N1c1ccccc1` (stereo not given), the EC50 (usually the concentration that produces a half-maximal response) is greater than 200 µM and the 50% inhibitory concentration (IC50) (usually the concentration that gives 50% inhibition) came to 61.7 µM.

Take `CCCCc1c2c(nc3c1CCC/C3=C\c1ccccc1)C(=O)C(CN(C)C)CC2` (stereo not given): the EC50 is greater than 9.33 µM and the IC50 is greater than 9.33 µM.

In the case of `CCC12CCCN(CCBr)C1c1c(n(C)c3ccccc13)C(C(=O)OC)C2` (stereo not given), the EC50 is greater than 27.5 µM and the half-maximal inhibitory concentration (IC50) was 13.5 µM.

For `Cc1cc2nc3c(C#N)c(C)c(CCCl)c(Cl)n3c2cc1C`, the EC50 is greater than 200 µM and the concentration for half-maximal inhibition (IC50) turned out to be 3.31 µM.

Turning to `COc1ccc(CCNC(=S)/N=C\C(C(=O)c2ccccc2)=C(\O)c2ccccc2)cc1OC`, the outcome was inactive.

In the case of `O=C1CCN2C(=O)CCN12`, the EC50 was greater than 1780 µM and the IC50 was greater than 1780 µM.

Regarding `O=C([O][Bi]([c]1ccccc1)[c]1ccccc1)c1ccccc1`, the EC50 was greater than 38.9 µM and the half-maximal inhibitory concentration (IC50) is greater than 38.9 µM.

With `C=CCCCCCCCCC(=O)NCCN1CCOCC1`, the EC50 was greater than 200 µM and the concentration for half-maximal inhibition (IC50) is greater than 200 µM.

For the molecule `CN(C(=O)C12C3C4C1C1C4(C#N)C3C12C(=O)O)C(C)(C)C` (stereo not given), the EC50 is greater than 158 µM and the 50% inhibitory concentration (IC50) is greater than 158 µM.

Consider `Cc1nc(C(N)=S)sc1C(/C=C/c1ccc(Cl)c(Cl)c1)=N/NC(C)(C)C`, for which the EC50 was greater than 117 µM and the IC50 was greater than 117 µM.

Regarding `N#CC1=CNc2ccccc2N=C1N`, the EC50 was greater than 200 µM and the IC50 is greater than 200 µM.

For the molecule `COC1/C=C/OC2(C)Oc3c(C)c(O)c4c(O)c(c(C=NN5CCCCCCCCCC5)c(O)c4c3C2=O)NC(=O)/C(C)=C/C=C/C(C)C(O)C(C)C(O)C(C)C(OC(C)=O)C1C` (stereo not given), the EC50 is greater than 200 µM and the half-maximal inhibitory concentration (IC50) was 6.17 µM.

With `CCN(CC)CC(=O)Nc1c(C)ccc(N)c1C`, the EC50 was greater than 200 µM and the half-maximal inhibitory concentration (IC50) was greater than 200 µM.

As to `C[C@]12CC[C@@H]3c4ccc(OS(N)(=O)=O)cc4CC[C@H]3[C@@H]1CCC2=O`, the result was inactive.

Regarding `Nn1nc2ccccc2n1`, the EC50 is greater than 1860 µM and the IC50 was greater than 1860 µM.

Take `COC(=O)/C(=C/c1ccc(OC)cc1)C(C(=O)O)=C1CCCCC1`: the EC50 is greater than 398 µM and the IC50 is 5.62 µM.

`CN(C)CCCN1c2ccccc2Sc2ccc(C(F)(F)F)cc21` displayed an EC50 greater than 200 µM and an IC50 of 107 µM.

As to `CN(C)/C=N/NC(=O)/C(C#N)=C/N(C)C`, the EC50 was greater than 200 µM and the IC50 is greater than 200 µM.

Turning to `O=C(NC12CC3CC(CC(C3)C1)C2)C(=O)c1c[nH]c2ccc(Cl)cc12`, the result was inactive.

Take `CCOc1ccccc1NC(=O)/C(=N\NC(C)(C)C)C1C(=O)Nc2ccccc2S1=O` (stereo not given): the EC50 was greater than 112 µM and the 50% inhibitory concentration (IC50) is 17.8 µM.

For `C1COC(NC(C2CC2)C2CC2)=N1`, the outcome was inactive.

As for `O=c1[nH]nc(Cc2ccc([N+](=O)[O-])cc2)[nH]1`, the EC50 was greater than 200 µM and the half-maximal inhibitory concentration (IC50) is greater than 200 µM.

With `Cn1c(-c2ccc(-c3cc(-c4cccs4)c(-c4cccs4)n3C)cc2)cc(-c2cccs2)c1-c1cccs1`, the EC50 is greater than 200 µM and the IC50 was greater than 200 µM.

Take `CN1C(=O)/C(=C2\SC(=O)N(Cc3nc4ccccc4[nH]3)C2=O)c2cc(Br)ccc21`: the EC50 was greater than 200 µM and the IC50 came out at 12.9 µM.

Take `N=C1/C(=C/c2ccco2)C(=O)N=C2SC=NN12`: the EC50 is greater than 200 µM and the half-inhibitory concentration (IC50) is greater than 200 µM.

`O=C1OCCc2c1[nH]c1ccccc21`: the EC50 is greater than 363 µM and the half-inhibitory concentration (IC50) stood at 219 µM.

In the case of `Cn1c(=O)c2c(nc(NCC[N+](C)(C)Cc3ccc(Cl)cc3)n2C)n(C)c1=O`, the EC50 is greater than 295 µM and the IC50 was greater than 295 µM.

Consider `Cc1c(-c2ccccc2)sc(N)c1C#N`, for which the result was inactive.

Regarding `C=C1CC[C@@H](Br)C(C)(C)[C@]12CCC(C)(O)C(Cl)C2` (stereo not given in full), the EC50 is greater than 77.6 µM and the half-maximal inhibitory concentration (IC50) was greater than 77.6 µM.

As for `COc1cc2c(oc(=O)c3c4oc([Si](C)(C)C)cc4cc(OC)c23)c2cccc(O)c12`, the EC50 was greater than 1.74 µM and the IC50 is greater than 1.74 µM.
